Test results taken from patent US9301943B2, “Use of eupatilin” (UNIVERSITY-INDUSTRY COOPERATION GROUP OF KYUNG HEE …, priority 2011, dated 2016).

What was measured:
estrogen receptor [1] = assay: Luciferase assay (3×ERE TATA luc), MCF7 cell line; format: cell-based, human; conditions: for Estrogen receptor subtype through which the substance acts (luciferase assay with siERα / siERβ): MCF-7 breast cancer cells, siRNA 50 nM; for Luciferase activity (-fold): MCF7, 24 h, non-treated group = 1
Description: (§1) MCF-7 (estrogen receptor-positive human breast cancer cell line), Ishikawa (estrogen receptor-positive endometrial cancer cell line), and MG-63 (human osteosarcoma; osteoblast-like cell line) were obtained from the American Type Culture Collection (ATCC). BG-1 (uterine cancer cell line) was furnished by courtesy of Dr. Korach (NIH, USA). Cells were cultured in a Dulbecco's modified Eagle's medium (DMEM) containing 10% fetal bovine serum (FBS), 100 U/ml penicillin and 100 U/ml streptomycin, at 37° C. and 5% CO2.
(§2) The luciferase assay is an assay of estimating an estrogenic activity by measuring the degree of a luciferase activity generated upon binding of a substance having an estrogenic activity to an estrogen receptor. This assay was carried out in the following procedure. Unless otherwise specified, the reagents used were purchased from Gibco (Karlwruhe, Germany).
(§3) The luciferase reporter plasmid used was 3×ERE TATA luc. (Addgene, Cambridge, USA). In order to control transfection efficiency, phRenilla-luciferase-CMV (Promega, Mannheim, Germany) as an internal control plasmid was co-transfected. Cells were cultured at a density of 2×10^5 cells/well in a 6-well plate, in a phenol red-free DMEM (Dulbecco's modified Eagle's medium) supplemented with 100 U/ml penicillin, […] streptomycin, 1 mM sodium pyruvate, 1 mM glutamine, and 10% charcoal dextran-treated fetal bovine serum (FBS). After the cells were cultured to a 50 to 60% confluence, the medium was removed, the cells were placed at 37° C. and 5% CO2 for 6 hours on a serum-free OPTI-MEM medium containing plasmid DNA constructs and 2 μg/ml of polyethyleneimine (PEI), according to the manufacturer's instructions. 1 μg/well of 3×ERE TATA luc and 100 ng of a phRL-CMV plasmid were subjected to transfection.
(§4) After the period of transfection, the medium was replaced with a phenol-free DMEM supplemented with 10% charcoal dextran-treated FBS, and the cells were cultured at 37° C. and 5% CO2 overnight prior to treatment of eupatilin.
(§5) After 18 hours of culture, the medium was replaced with a eupatilin-containing medium. The proteins were extracted 24 hours later, and firefly and renilla luciferase activities were measured on a luminometer (Molecular Devices, Sunnyvale, Calif.) using a Dual Luciferase Assay kit (Promega, Madison, Wis.) according to the manufacturer's instructions.
(§6) All experiments were carried out in triplicate and were repeated at least three times. For the luciferase assay, total cell lysates were prepared, the firefly luciferase activity was assayed and normalized to the renilla luciferase activity according to the manufacturer's instructions (Promega). Further, in order to knock down the cell levels of specific proteins, cells with co-transfection of small interfering RNAs (siRNAs) together with 3×ERE TATA luc and phRL-CMV were prepared and subjected to the same treatment of eupatilin or the like as in the cells which were not treated with siRNAs. The siRNAs used were purchased from Bioneer Corporation (Daejeon, South Korea) and treated at a concentration of 50 nM. The “siERα” means siRNA which inhibits the expression of ERα, and the “siERβ” means siRNA which inhibits the expression of ERβ.

estrogen receptor [2] = assay: Luciferase assay (3×ERE TATA luc), Ishikawa cells; format: cell-based; conditions: for Estrogen receptor subtype through which the substance acts (luciferase assay with siERα / siERβ): Ishikawa endometrial cancer cells, siRNA 50 nM; for Luciferase activity (-fold): Ishikawa, 24 h, non-treated group = 1
Description: as §1, §2, §3, §4, §5, §6

MG-63 cells = assay: ALP activity in osteoblastic cells; format: cell-based, human; conditions: 24 h
Description: The ALP activity in MG-63 cells treated with eupatilin was measured to confirm that eupatilin enhances a bone density in osteoblastic cells. […] Based on the fact that ALP degrades p-nitrophenylphosphate into p-nitrophenol and phosphate, effects of eupatilin on osteoblasts were observed by measuring an ALP activity in terms of an absorbance ratio between the absorbance of each substance and the absorbance of the control at 405 nm.
After 24 hours of the treatment, lysates were prepared and slowly shaken for 30 min. Then, the ALP activity was assayed by measuring the release of p-nitrophenol from p-nitrophenylphosphate (20 mM in 1M diethanolamine buffer supplemented with MgCl2 at pH 9.8). The absorbance was measured at 405 nm. The standard curve was drawn using various concentrations of […] within the range of 0 to 0.1 U/ml PBS-T. The ALP values were adjusted for the protein content of the corresponding cell lysates. The cultures protein content was quantified by means of a bicinchoninic acid protein assay (Thermo Scientific). The results obtained were compared with those of the control to which only BSA was added at a concentration of 100 nM and no specimen was added.

MCF7 breast cancer cells = assay: MTT assay, cancer cell growth; format: cell-based, human; conditions: 48 h, control DMSO
Description: Cell viability was estimated by the MTT (3-[4,5-dimethylthiazol-2-yl]-2,5-diphenyltetrazolium bromide; Sigma-Aldrich) assay to confirm cancer cell growth inhibitory effects of eupatilin.
MCF7 breast cancer cells were seeded onto a 96-well plate and incubated for 24 hours. […] On the day of collection, 50 μl of MTT solution (5 mg/ml in PBS) was added to the medium, followed by incubation at 37° C. for 4 hours. The MTT-containing medium was removed and the cells were solubilized in DMSO (100 μl) for 30 min. The cell viability was determined in terms of an optical density at 540 nm using a microplate spectrophotometer (SpectraMax; Molecular Devices, Sunnyvale, Calif.).
Ethanol which is a vehicle was served as control for the E2-treated group, and DMSO was served as control for the eupatilin-treated group.
The viability is expressed in terms of a relative ratio by taking a value of the control to be 100, and the lethality is also expressed in terms of a relative ratio by taking a value of the control to be 100.

estrogen receptor [3] = biological target: T1, estrogen receptor (Homo sapiens, UniProt Q92731); assay: Luciferase assay (3×ERE TATA luc), MG63 cell line; format: cell-based; conditions: for Luciferase activity (-fold): MG63, 24 h, non-treated group = 1
T1 construct: MG-63 (human osteosarcoma; osteoblast-like cell line); endogenous in cells; host or cells: MG-63
Description: as §1, §2, §3, §4, §5
All experiments were carried out in triplicate and were repeated at least three times. For the luciferase assay, total cell lysates were prepared, the firefly luciferase activity was assayed and normalized to the renilla luciferase activity according to the manufacturer's instructions (Promega). […]

estrogen receptor [4] = assay: Luciferase assay (3×ERE TATA luc), BG-1 cell line; format: cell-based; conditions: 24 h, non-treated group = 1
Description: as §1, §2
as §3, with “1 μg/well of 3×ERE TATA luc and 100 ng of a phRL-CMV plasmid were subjected to transfection.” left out
as §5, with “instructions. […]” for “instructions.”

T1 sequence (Q92731 whole entry): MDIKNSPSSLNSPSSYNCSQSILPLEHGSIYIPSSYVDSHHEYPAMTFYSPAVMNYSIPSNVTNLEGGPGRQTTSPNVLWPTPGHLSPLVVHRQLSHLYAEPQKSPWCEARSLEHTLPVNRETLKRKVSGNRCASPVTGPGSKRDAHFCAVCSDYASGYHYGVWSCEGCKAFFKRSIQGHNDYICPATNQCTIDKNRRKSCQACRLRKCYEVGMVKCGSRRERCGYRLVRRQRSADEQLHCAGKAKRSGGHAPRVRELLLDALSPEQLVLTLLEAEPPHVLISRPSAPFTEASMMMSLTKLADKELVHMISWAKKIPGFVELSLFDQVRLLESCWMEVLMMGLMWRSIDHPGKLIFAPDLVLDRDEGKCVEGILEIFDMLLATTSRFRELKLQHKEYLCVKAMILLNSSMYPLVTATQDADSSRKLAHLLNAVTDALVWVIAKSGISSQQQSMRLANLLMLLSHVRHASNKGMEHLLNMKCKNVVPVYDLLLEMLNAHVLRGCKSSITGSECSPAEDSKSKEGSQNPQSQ

## C[C@]12CC[C@@H]3c4ccc(O)cc4CC[C@H]3[C@@H]1CC[C@@H]2O [E2, 17-β-estradiol, reference compound]
Estrogen receptor [1]; E2 10^−7 M, FIG. 1
  Estrogen receptor subtype through which the substance acts (luciferase assay with siERα / siERβ): largely induces cell proliferation via only ERα
Estrogen receptor [2]; E2 10^−7 M, FIG. 2
  Estrogen receptor subtype through which the substance acts (luciferase assay with siERα / siERβ): largely induces cell proliferation via only ERα

## COc1ccc(-c2cc(=O)c3c(O)c(OC)c(O)cc3o2)cc1OC [Eupatilin, 5,7-dihydroxy-3′,4′,6-trimethoxyflavone]
MG-63 cells; eupatilin 0.2 μg/ml
  ALP activity (% relative to control): 20.5 % relative to control
MG-63 cells; eupatilin 2.0 μg/ml
  ALP activity (% relative to control): 60 % relative to control
MCF7 breast cancer cells; eupatilin 0.1 μg/ml
  Cell lethality (% relative to control): 21.5 % relative to control
MCF7 breast cancer cells; eupatilin 1 μg/ml
  Cell lethality (% relative to control): 24.5 % relative to control
Estrogen receptor [3]; eupatilin 0.01 μg/ml
  Luciferase activity (-fold): 2.1 -fold
Estrogen receptor [3]; eupatilin 0.1 μg/ml
  Luciferase activity (-fold): 1.7 -fold
Estrogen receptor [3]; eupatilin 1 μg/ml
  Luciferase activity (-fold): 1.6 -fold
Estrogen receptor [3]; MG-63 osteoblastic cells, siRNA 50 nM, eupatilin 0.1 or 1.0 μg/ml, FIG. 6
  Estrogen receptor subtype through which the substance acts (luciferase assay with siERα / siERβ): acts selectively on ERβ
Estrogen receptor [4]; eupatilin 0.01 μg/ml
  Luciferase activity (-fold): 2.9 -fold
Estrogen receptor [4]; eupatilin 0.1 μg/ml
  Luciferase activity (-fold): 3.3 -fold
Estrogen receptor [4]; eupatilin 1 μg/ml
  Luciferase activity (-fold): 3.7 -fold
Estrogen receptor [1]; eupatilin 0.01 μg/ml
  Luciferase activity (-fold): 2.4 -fold
Estrogen receptor [1]; eupatilin 0.1 μg/ml
  Luciferase activity (-fold): 2.3 -fold
Estrogen receptor [1]; eupatilin 1 μg/ml
  Luciferase activity (-fold): 2.8 -fold
Estrogen receptor [1]; eupatilin 0.1 or 1.0 μg/ml, FIG. 3
  Estrogen receptor subtype through which the substance acts (luciferase assay with siERα / siERβ): acts equally on both ERα and ERβ
Estrogen receptor [2]; eupatilin 0.1 or 1.0 μg/ml, FIG. 4
  Estrogen receptor subtype through which the substance acts (luciferase assay with siERα / siERβ): acts equally on both ERα and ERβ
Estrogen receptor [2]; eupatilin 0.01 μg/ml
  Luciferase activity (-fold): 1.4 -fold
Estrogen receptor [2]; eupatilin 0.1 μg/ml
  Luciferase activity (-fold): 1.9 -fold
Estrogen receptor [2]; eupatilin 1 μg/ml
  Luciferase activity (-fold): 2.9 -fold
